The source of these data is patent publication US8658202B2, “Coated drug delivery formulations” (Western University of Health Sciences, priority 2001, dated 2014).

SMILES strings stand for the structures. Where two headings read alike, the source gives them in different places. Marks after values point to notes of the source that are not given here.

The nature of series [1]: Pharmacokinetics of halofantrine enantiomers after oral gavage of proliposomal or control suspension. The format is in vivo, Sprague-Dawley rats. The note with it: 7 mg/kg oral gavage, rats; for AUC: AUC0-24, mean±SD; for Cmax / Tmax: mean±SD. Here is the method: The pharmacokinetic parameters of the enteric coated proliposomal formulation of halofantrine were evaluated as follows. The proliposomal product was prepared as a suspension in 0.78% methylcellulose. A non-liposomal suspension formulation (control) was prepared by dispersing halofantrine powder in 1% methylcellulose. Sprague-Dawley rats were cannulated at the right jugular vein under halothane anesthesia. After an overnight rest, the rats were given 7 mg/kg of a halofantrine suspension as either the proliposomal (7 rats) or control (6 rats) formulation by oral gavage. Serial blood samples were obtained from the cannula until 48 h post-dose. A stereospecific HPLC assay was used to measure plasma concentration of halofantrine enantiomers. Noncompartmental pharmacokinetic methods were used to determine AUC0-24, Cmax and tmax. Student's unpaired t-test was used to assess significance of differences.

Series [2] can be described thus: Comparison of preparation methods: particle size. The format is physicochemical. From the text: (§1) One embodiment of the present invention was compared to a control method for producing pharmaceutical formulations. The control method used in the following examples is disclosed by Ganter in U.S. Pat. No. 5,635,206, herein incorporated by reference, at Example 1, except that the percentage of water used was 5% and 0%. To exemplar drugs which are poorly water soluble were used: glyburide and benzocaine.
(§2) The following tables summarize the protocol used and the results.

Series [3] can be described thus: Comparison of preparation methods: texture of product. The note with it: 12% drug, 63% lecithin (DMPC). The format is physicochemical.
From the text: as §1, §2

Series [4] can be described thus: Comparison of preparation methods: absorbance in the aqueous phase (incorporation with the lipid). The format is physicochemical.
From the text: as §1, §2
Some embodiments of the present invention have one or more of the aforementioned advantages.

[5] abbreviates: Control: halofantrine powder in 1% methylcellulose.
The mark [6] stands for this setting: Liposome: enteric coated proliposomal formulation.

One may read the AUC as concentration integrated over time. For orientation: Cmax means the maximum level reached in the sampled fluid or tissue. What is called Tmax is the time at which the peak concentration occurs. As for `CCCCN(CCCC)CCC(O)c1cc2c(Cl)cc(Cl)cc2c2cc(C(F)(F)F)ccc12` (single isomer, unassigned; (+)) [(+)-HF, halofantrine], in series [1] (setting [5]), the AUC is reported as 5.2 ± 0.81^b μg × h/mL, the Cmax is on record as 391 ± 59.2^b ng/mL and the Tmax came to 7.0 ± 2.3 h. In addition, the AUC in series [1] (Liposome: enteric coated proliposomal formulation in 0.78% methylcellulose) is reported as 7.7 ± 1.8^a,b μg × h/mL. Also, in series [1] (setting [6]), the Cmax is listed as 722 ± 170^a,b ng/mL and the Tmax was found to be 4.1 ± 2.3 h.
As to `CCCCN(CCCC)CCC(O)c1cc2c(Cl)cc(Cl)cc2c2cc(C(F)(F)F)ccc12` (single isomer, unassigned; (-)) [(−)-HF, halofantrine], the AUC in series [1] (Sprague-Dawley, rat, plasma, po, 7 mg/kg, Control: halofantrine powder in 1% methylcellulose, read-out: AUC) is 1900 ± 530 ng·h/mL; in series [1] (Sprague-Dawley, rat, plasma, po, 7 mg/kg, Liposome: enteric coated proliposomal formulation in 0.78% methylcellulose, read-out: AUC), 2600 ± 660 ng·h/mL. In addition, the Cmax in series [1] (Sprague-Dawley, rat, plasma, po, 7 mg/kg, Control: halofantrine powder in 1% methylcellulose, read-out: Cmax) is 196 ± 42.3 ng/mL; in series [1] (Sprague-Dawley, rat, plasma, po, 7 mg/kg, Liposome: enteric coated proliposomal formulation, read-out: Cmax), 360 ± 80.5 ng/mL. In addition, the Tmax was 4.6 ± 2.1 h in series [1] (Sprague-Dawley, rat, plasma, po, 7 mg/kg, Control: halofantrine powder in 1% methylcellulose, read-out: Tmax) and 4 ± 1.3 h in series [1] (Sprague-Dawley, rat, plasma, po, 7 mg/kg, Liposome: enteric coated proliposomal formulation, read-out: Tmax).
Regarding `CCOC(=O)c1ccc(N)cc1` [Benzocaine, benzocaine], the entries for the “Particle Size” value in series [2] (Applicant's Method), in series [2] (Control Method With 0% Water) and in series [2] (Control Method With 5% Water) were 9.163 μm, 3.830 μm and 1.190 μm, respectively. For the same molecule, the Texture entry is “Powder” in series [3] (Applicant's Method), “Clear Solution” in series [3] (Control Method With 0% Water) and “Clear Solution” in series [3] (Control Method With 5% Water). The Absorbance in series [4] (Applicant's Method) is 3.7377; in series [4] (Control Method With 0% Water), 3.6130; in series [4] (Control Method With 5% Water), 3.6030.
On to `COc1ccc(Cl)cc1C(=O)NCCc1ccc(S(=O)(=O)NC(=O)NC2CCCCC2)cc1` [Glyburide, glyburide], for which the figures for the “Particle Size” value in series [2] (Applicant's Method), in series [2] (Control Method With 0% Water) and in series [2] (Control Method With 5% Water) were 8.638 μm, 5.978 μm and 2.544 μm, respectively. The Texture entry is given as “Powder” in series [3] (Applicant's Method), “Milky” in series [3] (Control Method With 0% Water) and “Milky” in series [3] (Control Method With 5% Water). Also, the Absorbance is 1.9446 in series [4] (Applicant's Method), 3.9141 in series [4] (Control Method With 0% Water) and 3.8177 in series [4] (Control Method With 5% Water).
